Data set [1] relates to angiotensin II-treated hypertensive rats. The data set can be described thus: Blood pressure in angiotensin II-treated hypertensive rats. Format: in vivo, rat. The text has this: (§1) Rats were obtained from Harlan (Indianapolis, Ind.). Male, 8- to 10-month-old SHR, age-matched male Wistar-Kyoto rats (WKY), and 8- to 10-week-old male Sprague-Dawley rats were maintained on standard rat chow and water ad libitum. Dahl salt-sensitive and salt-resistant rats (male, Rapp strain, 6 weeks old) were maintained for 4 weeks on rat chow containing either 0.12% or 8% NaCl. Systolic blood pressure monitored daily by the tail-cuff technique was 120±11 mm Hg (salt-sensitive, 0.12% NaCl), 180±14 mm Hg (salt-sensitive, 8% NaCl), and 118±9 mm Hg (salt-resistant, 8% NaCl). Hypertension was induced in Sprague-Dawley rats by chronic infusion of angiotensin II (60 ng/min) via an osmotic minipump (Imig et al. Hypertension 2002; 39: 690-694. Rats were used 10 to 12 days after implantation of the minipump.
(§2) For hemodynamic measurements, rats were anesthetized with pentobarbital sodium (60 mg/kg IP) and tracheotomized to facilitate breathing. Animals were placed on controlled heating pads, and core temperature, measured via a rectal probe, was maintained at 37° C. […] Cardiac output calculated and corrected according to in vitro and in vivo volume calibrations with PVAN2.918 was normalized to body weight (cardiac index [CI]). Total peripheral resistance index (TPRI) was calculated by the equation TPRI=MAP/CI. […]

Data set [2] deals with spontaneously hypertensive rat (SHR). The data set can be described thus: Hemodynamic measurements in anesthetized spontaneously hypertensive rats. As to conditions: for change in MAP: n=4. The data set is classed as in vivo. How it is done:
(§3) Anandamide, the CB1 receptor antagonist AM251, and the anandamide transport inhibitors AM404 and OMDM-2 were obtained from Tocris; and the CB1 antagonist SR141716 and the CB2 antagonist SR144528 were from the National Institute on Drug Abuse drug supply program. Drugs were mixed in corn oil and sonicated for 5 minutes at 4° C. The mixture was added to 4 parts of Pluronic F68 (Sigma-Aldrich) solution (40 mg/mL) dissolved in water and sonicated to obtain a stable suspension for bolus intravenous injections.
as §1, with “Systolic blood pressure monitored daily by the tail-cuff technique was 120±11 mm Hg (salt-sensitive, 0.12% NaCl), 180±14 mm Hg (salt-sensitive, 8% NaCl), and 118±9 mm Hg (salt-resistant, 8% NaCl).” left out
(§4) For hemodynamic measurements, rats were anesthetized with pentobarbital sodium (60 mg/kg IP) and tracheotomized to facilitate breathing. Animals were placed on controlled heating pads, and core temperature, measured via a rectal probe, was maintained at 37° C. A microtip pressure-volume catheter (SPR-838; Millar Instruments) was inserted into the right carotid artery and advanced into the left ventricle (LV) under pressure control as described previously. Polyethylene cannulae (P50) were inserted into the right femoral artery and vein for measurement of mean arterial pressure (MAP) and administration of drugs, respectively. […] Heart rate, maximal LV systolic pressure, MAP, and maximal slope of systolic pressure increment (+dP/dt) were computed with a cardiac pressure-volume analysis program (PVAN2.9; Millar). Cardiac output calculated and corrected according to in vitro and in vivo volume calibrations with PVAN2.918 was normalized to body weight (cardiac index [CI]). Total peripheral resistance index (TPRI) was calculated by the equation TPRI=MAP/CI. In 3 experiments, drugs were microinjected into the fourth cerebral ventricle as described by Ramirez-Gonzalez et al. Circ Res. 1983; 53, 150-157.
(§5) Time-dependent variables were analyzed by ANOVA followed by the Dunnett post hoc test. In other cases, the Student t test was used, as appropriate. Values with P<0.05 were considered statistically significant.

For data set [3], the system named is Wistar-Kyoto rats (WKY). The data set can be described thus: Hemodynamic measurements in normotensive Wistar-Kyoto rats. Format: in vivo, rat. The method, then: as §3, §1, §4, §5
Data set [4] deals with liver-specific CB1 receptor knockout mice. The data set can be described thus: Intraperitoneal glucose tolerance test in liver-specific CB1 receptor knockout mice on high-fat diet. Format: in vivo. As to conditions: URB597 10 mg/kg i.p., liver-specific CB1 knockout mice on HFD. The method, then:
(§6) Male C57Bl6/J mice, wild-type or liver-specific CB1 receptor knockout, were kept on a diet containing 60% of calories as fat (Research Diets Inc) for 14 weeks, by which time both strains have become fat due to increased adipose mass. […] Sixty minutes later the mice received 1.5 g/kg glucose i.p. and blood glucose levels were monitored for 2 hours.

Data set [5] addresses T1, FAAH (Mus musculus, UniProt O08914).
T1 construct: the brain and liver removed, and tissue homogenates prepared as described above; from tissue; host or cells: mouse brain and liver homogenates after in vivo dosing
T1 sequence (O08914 1-579): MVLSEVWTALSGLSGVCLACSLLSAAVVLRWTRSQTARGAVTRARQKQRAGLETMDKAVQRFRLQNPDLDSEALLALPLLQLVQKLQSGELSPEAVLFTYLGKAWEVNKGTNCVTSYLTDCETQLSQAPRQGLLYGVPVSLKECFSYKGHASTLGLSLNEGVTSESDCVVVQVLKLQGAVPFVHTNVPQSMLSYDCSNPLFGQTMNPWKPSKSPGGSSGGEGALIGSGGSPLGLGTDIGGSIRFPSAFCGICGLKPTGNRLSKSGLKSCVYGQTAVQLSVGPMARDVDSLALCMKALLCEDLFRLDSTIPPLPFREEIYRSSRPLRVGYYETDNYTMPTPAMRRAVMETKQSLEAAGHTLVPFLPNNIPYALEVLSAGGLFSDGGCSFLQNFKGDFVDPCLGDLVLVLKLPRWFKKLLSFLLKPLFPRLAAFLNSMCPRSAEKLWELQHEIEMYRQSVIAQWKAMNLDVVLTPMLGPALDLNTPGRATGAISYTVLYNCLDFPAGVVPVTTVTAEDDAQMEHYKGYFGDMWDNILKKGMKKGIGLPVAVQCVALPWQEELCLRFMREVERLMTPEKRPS
The data set can be described thus: FAAH activity in brain and liver homogenates following in vivo administration. Set-up: species or system mice. To be noted: mouse. The method, then:
For the experiments illustrated in FIG. 3, FAAH activity was assessed through a different method not requiring TLC separation, as described by Jonsson et al: Br. J. Pharmacol. 133:1263-1275, 1997. […] The mice were sacrificed one hour later, the brain and liver removed, and tissue homogenates prepared as described above. [^3H]Anandamide labeled on the ethanolamide moiety was added to the homogenate and incubated at 37° C. for 10 min. The homogenate was then extracted twice with chloroform:methanol 1:1 and the radioactivity in the aqueous phase (containing the released ethanolamide) was counted.

Data set [6] is described as follows: Non-fasting blood glucose in SHR and WKY. As to conditions: URB597 10 mg/kg i.p., n=4.
Data set [7] concerns male DIO mice (wild-type C57Bl6/J on high-fat diet). The data set can be described thus: Intraperitoneal glucose tolerance test in wild-type mice with diet-induced obesity. Format: in vivo. As to conditions: URB597 10 mg/kg i.p., 60 min before glucose 1.5 g/kg i.p., 10 mg/kg. How it is done: as §6
Data set [8] deals with normotensive controls (Sprague-Dawley rats). Description: Blood pressure in normotensive controls of angiotensin II-treated rats. To be noted: URB597, normotensive controls of angiotensin II-treated rats. The data set is classed as in vivo, rat.
Excerpt: as §1, §2

Entries after “also recorded” stand apart in the source; their conditions may differ. A value given as a limit tells only on which side of the number the result lay.

Turning to `CCCCC/C=C\C/C=C\C/C=C\C/C=C\CCCC(=O)NCCO` [anandamide], the anandamide-induced hypotension entry in data set [1] (rats with angiotensin II-induced hypertension) is recorded as “potentiated”. Further, in data set [2] (SHR), the “hypotensive response after pretreatment with the VR1 antagonist capsazepine” value is listed as “not affected by capsazepine pretreatment”. Moreover, in data set [2] (anandamide 10 mg/kg, SHR), the CI entry is “decreases”; the TPRI result is on record as “decreases”; the blood pressure result is on record as “sustained decrease in blood pressure to near normotensive levels”; the “cardiac contractility (dP/dt, LV systolic pressure)” value is on record as “decreases”. Further, the heart rate result in data set [2] (anandamide 10 mg/kg, SHR) was “decreases”. In data set [3] (anandamide 10 mg/kg), the blood pressure entry was “modest and short-lasting”; the cardiac contractility result is “modest and short-lasting”; the “duration of decrease in blood pressure and cardiac contractility” value was below 5 min; the other hemodynamic changes entry is listed as “without other hemodynamic changes”.
As usually defined, the inhibition is the share of the control response that was lost under treatment. What is called ED50 is the midpoint of the dose-response relation. In the case of `NC(=O)c1cccc(-c2cccc(OC(=O)NC3CCCCC3)c2)c1` [URB597], the glucose tolerance result in data set [4] was “failed to affect glucose tolerance”. Besides, in data set [5] (in vivo, 10 mg/kg), the “inhibition of FAAH activity in the liver” value was “significantly inhibits FAAH activity in the liver” and the “inhibition of FAAH in brain” value is reported as “near complete inhibition”. Besides, the inhibition at 10 mg/kg in data set [5] (read-out: inhibition of FAAH in liver) was above 90%. The blood pressure entry in data set [1] (URB597, angiotensin II-treated hypertensive rats) was “lowered blood pressure”. Also, the “non-fasting blood glucose after treatment” value in data set [6] (SHR, from 104.0±7.4) is 144.0 ± 9.6 mg/dL. Moreover, the “non-fasting blood glucose after treatment” value in data set [6] (WKY, from 90.0±7.2) is 135.3 ± 12.9 mg/dL. Further, the ED50 in data set [2] (Rattus norvegicus, dose-response studies, n=3, read-out: hypotensive ED50) was found to be 1.7 mg/kg. In addition, in data set [2] (SHR), the “hypotensive response after pretreatment with the VR1 antagonist capsazepine” value was “not affected by capsazepine pretreatment”. Moreover, in data set [2] (URB597 10 mg/kg IV, SHR), the LV systolic pressure entry is given as “decreased”, the TPRI entry is reported as “decreased”, the arterial pressure result is “decreased arterial pressure to normotensive levels” and the dP/dt entry was “decreased”. Also, the “cardiac contractility (pressure/volume relationship)” value in data set [2] (URB597, SHR) is reported as “decrease in cardiac contractility”. Besides, the “effects of URB597 in the hypertensive animals in the presence of CB1 antagonists” value in data set [2] (hypertensive animals, CB1 antagonists) is “could be prevented by CB1 antagonists”. For the same molecule, in data set [7], the glucose intolerance entry is listed as “marked increase in their glucose intolerance; also recorded: increases glucose intolerance”. In addition, in data set [8], the blood pressure entry was “not in their normotensive controls”. In data set [3] (URB597 10 mg/kg IV), the hemodynamic effects result was “no detectable hemodynamic effects”.
On to `CCCCCCCC/C=C\CCCCCCCC(=O)N[C@@H](CO)Cc1ccc(O)cc1` [OMDM-2], for which the “change in MAP” value is −39±10 mm Hg in data set [2] (OMDM-2 5 mg/kg, SHR) and “no significant change” in data set [3] (OMDM-2 5 mg/kg).
Turning to `CCCCC/C=C\C/C=C\C/C=C\C/C=C\CCCC(=O)Nc1ccc(O)cc1` [AM404], the “change in MAP” value in data set [2] (AM404 10 mg/kg, SHR) is −63±19 mm Hg; in data set [3] (AM404 10 mg/kg), “no significant change”.
`CCCCCCC(C)(C)c1cc(O)c2c(c1)OC(C)(C)[C@@H]1CC=C(CO)C[C@@H]21` [HU210]: the “hypotensive EC50” value in data set [2] (SHR, n=6) was 1.5 µg/kg; in data set [3] (n=6), 5.9 µg/kg. Also, the maximal hypotensive effect in data set [2] (SHR, n=6) is listed as −108±11 mm Hg; in data set [3] (n=6) it was −39±14 mm Hg.

(Values after patent US8293724B2, “Therapeutic applications of fatty acid amide hydrolase inhibitors” (The United States of America, as represented by the …, priority 2007, dated 2012).)
